In US20120258980A1, “Antibacterial Agent for Drug-Resistant Bacteria, Method for Screening for Same, and Use of Same” (priority 2009, published 2012):
Values after ≈ are worked out from the molar mass of the structure shown.

Assays:
VRSA clinical isolates = test: microbe, parasite or virus in culture; format: cell-based; details: Staphylococcus aureus
Method: (§1) Each of the bacterial strains listed in Table 1-1 was shake-cultured at 37° C. overnight in 4 mL of a medium (Tryptical Soy Broth: TSB, product of Becton Dickinson and Company). FDA209P was used as a control.
(§2) After completion of culturing, the resultant culture was suspended in a cation-adjusted Mueller Hinton Broth (CAMHB, product of Becton Dickinson and Company). Then, the obtained bacterial culture was adjusted in absorbance with the CAMHB so that the absorbance at 578 nm of the bacterial culture was adjusted to 0.3 measured by an absorption spectrometer. In addition, the resultant bacterial culture was 500-fold diluted with the CAMHB.
(§3) Each of the 500-fold diluted, pre-cultured bacterial cultures was added at 50 μL/well to the CAMHB containing the quinolones and the nybomycins at various concentrations (50 μL/well), followed by statically culturing at 37° C. overnight.
(§4) After completion of culturing, the growth of the bacteria was visually determined based on turbidity to measure MIC in each bacterial strain.
(§5) Here, the glycopeptides used were VCM and TEIC. The β-lactam used was OXA.

[1] = system: methicillin-susceptible S. aureus (MSSA), MRSA and mutants thereof; test: MIC measurement, Test Example 3 (MSSA, MRSA and sequential gyrA/grlA quinolone-resistant mutants); format: cell-based, Staphylococcus aureus; details: Staphylococcus aureus
Description: That is, the first-step quinolone-resistant mutants are bacterial strains which are the same as their parent strains (clinical isolates) except that the genes shown in the corresponding parts of Table 1-1 are mutated. The second-step quinolone-resistant mutants are bacterial strains which are the same as the first-step quinolone-resistant mutants except that the genes shown in the corresponding parts of Table 1-1 are further mutated. The third-step quinolone-resistant mutants are bacterial strains which are the same as the second-step quinolone-resistant mutants except that the genes shown in the corresponding parts of Table 1-1 are further mutated. The fourth-step quinolone-resistant strain is a bacterial strain which is the same as the third-step quinolone-resistant mutant bacteria except that the gene shown in the corresponding part of Table 1-1 is further mutated.
as §1, §2, §3, §4

[2] = system: MRSA, CA-MRSA and MSSA of Staphylococcus aureus; test: MIC measurement, Test Example 4 (MRSA, CA-MRSA and MSSA strains); format: cell-based; details: Staphylococcus aureus
Outline: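 S. aureus strains (FDA209P control) grown overnight in TSB at 37° C, resuspended in CAMHB, adjusted to A578 0.3 and diluted 500-fold. Equal volume added to CAMHB with serial compound concentrations, incubated statically overnight at 37° C. MIC read visually as lowest concentration without turbidity.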

[3] = system: VISA clinical isolates of MRSA (VI-MRSA) and of MSSA (VI-MSSA); test: microbe, parasite or virus in culture; format: cell-based, Staphylococcus aureus
Method: as §1, §2, §3, §4, §5

## CC1COc2c(N3CCN(C)CC3)c(F)cc3c(=O)c(C(=O)O)cn1c23 (stereo not shown) [OFLX, ofloxacin]
VRSA clinical isolates; VRS1, VRSA, Michigan
  MIC: 32 µg/mL (≈ 88.6 µM)
VRSA clinical isolates; VRS2, VRSA, Pennsylvania
  MIC: 32 µg/mL (≈ 88.6 µM)
VRSA clinical isolates; VRS3, VRSA, New York
  MIC: 32 µg/mL (≈ 88.6 µM)
VRSA clinical isolates; VRS4, VRSA, New York
  MIC: 32 µg/mL (≈ 88.6 µM)
VRSA clinical isolates; VRS5, VRSA, Michigan
  MIC: > 128 µg/mL
VRSA clinical isolates; VRS6, VRSA, Michigan
  MIC: 64 µg/mL (≈ 177 µM)
VRSA clinical isolates; VRS7, VRSA, Michigan
  MIC: 64 µg/mL (≈ 177 µM)
[1]; MR5867-1, first-step quinolone-resistant mutant, grlA E84K
  MIC: 1 µg/mL (≈ 2.77 µM)
[1]; MR5867-3, third-step mutant, further grlA S80F
  MIC: 64 µg/mL (≈ 177 µM)
[1]; MR5867-4, fourth-step mutant, further gyrA E88K
  MIC: > 128 µg/mL
[1]; MS5935-1, first-step quinolone-resistant mutant, grlA S80F
  MIC: 1 µg/mL (≈ 2.77 µM)
[1]; MS5935-3, third-step mutant, further grlA E84K
  MIC: 128 µg/mL (≈ 354 µM)
[1]; MS5952-1, first-step quinolone-resistant mutant, grlA S80Y
  MIC: 1 µg/mL (≈ 2.77 µM)
[1]; MS5952-3, third-step mutant, further grlA A116V
  MIC: 64 µg/mL (≈ 177 µM)
[2]; ATCC 29213 / MRSA / MSSA, ATCC 29213, MSSA
  MIC: 0.25 µg/mL (≈ 0.692 µM)
[2]; COL, MRSA
  MIC: 0.5 µg/mL (≈ 1.38 µM)
[2]; FDA209P / MRSA / MSSA, FDA209P, MSSA
  MIC: 0.125 µg/mL (≈ 0.346 µM)
[2]; ISA12-1, MRSA
  MIC: 0.5 µg/mL (≈ 1.38 µM)
[2]; ISA12-2, MRSA
  MIC: 0.5 µg/mL (≈ 1.38 µM)
[2]; ISA35-1, MRSA
  MIC: 2 µg/mL (≈ 5.53 µM)
[2]; ISA37-1, MSSA
  MIC: 0.25 µg/mL (≈ 0.692 µM)
[2]; ISA49-1, MSSA
  MIC: 0.25 µg/mL (≈ 0.692 µM)
[2]; ISA51-1, MSSA
  MIC: 0.5 µg/mL (≈ 1.38 µM)
[2]; ISA56-3, MRSA
  MIC: 0.5 µg/mL (≈ 1.38 µM)
[2]; ISA58-1, MRSA
  MIC: 0.5 µg/mL (≈ 1.38 µM)
[2]; ISA62-1, MRSA
  MIC: 0.25 µg/mL (≈ 0.692 µM)
[2]; ISA73-1, MSSA
  MIC: 0.25 µg/mL (≈ 0.692 µM)
[2]; KBSA32, MRSA
  MIC: 0.25 µg/mL (≈ 0.692 µM)
[2]; KBSA34, MRSA
  MIC: 0.5 µg/mL (≈ 1.38 µM)
[2]; KBSA72, MRSA
  MIC: > 128 µg/mL
[2]; KBSA96, MRSA
  MIC: 16 µg/mL (≈ 44.3 µM)
[2]; KBSA171, MRSA
  MIC: 32 µg/mL (≈ 88.6 µM)
[2]; KSA24, MRSA
  MIC: 32 µg/mL (≈ 88.6 µM)
[2]; KSA31, MRSA
  MIC: 8 µg/mL (≈ 22.1 µM)
[2]; KSA36, MRSA
  MIC: > 128 µg/mL
[2]; MRSA / MSSA / NCTC 8325, NCTC 8325, MSSA
  MIC: 0.25 µg/mL (≈ 0.692 µM)
[2]; MRSA / MSSA / USA300, USA300 FPR3757, CA-MRSA
  MIC: 16 µg/mL (≈ 44.3 µM)
[2]; MW2, CA-MRSA
  MIC: 0.5 µg/mL (≈ 1.38 µM)
[2]; N315, MRSA
  MIC: 0.25 µg/mL (≈ 0.692 µM)
[3]; Staphylococcus aureus, 99/3700-W, VI-MRSA, The United Kingdom
  MIC: 16 µg/mL (≈ 44.3 µM)
[3]; Staphylococcus aureus, 99/3759-V, VI-MRSA, The United Kingdom
  MIC: 32 µg/mL (≈ 88.6 µM)
[3]; Staphylococcus aureus, 28160, VI-MRSA, South African Republic
  MIC: 64 µg/mL (≈ 177 µM)
[3]; Staphylococcus aureus, 98141, VI-MRSA, France
  MIC: 16 µg/mL (≈ 44.3 µM)
[3]; Staphylococcus aureus, A7 (JCSC4842), VI-MRSA, Taiwan
  MIC: 16 µg/mL (≈ 44.3 µM)
[3]; Staphylococcus aureus, AMC11094, VI-MRSA, Korea
  MIC: 128 µg/mL (≈ 354 µM)
[3]; Staphylococcus aureus, B7 (JCSC4852), VI-MRSA, Taiwan
  MIC: 16 µg/mL (≈ 44.3 µM)
[3]; Staphylococcus aureus, BR1, VI-MRSA, Brazil
  MIC: 64 µg/mL (≈ 177 µM)
[3]; Staphylococcus aureus, BR2, VI-MRSA, Brazil
  MIC: 64 µg/mL (≈ 177 µM)
[3]; Staphylococcus aureus, BR3, VI-MRSA, Brazil
  MIC: 64 µg/mL (≈ 177 µM)
[3]; Staphylococcus aureus, BR4, VI-MRSA, Brazil
  MIC: 64 µg/mL (≈ 177 µM)
[3]; Staphylococcus aureus, BR5, VI-MRSA, Brazil
  MIC: 64 µg/mL (≈ 177 µM)
[3]; Staphylococcus aureus, HIP06297, VI-MRSA, America
  MIC: 16 µg/mL (≈ 44.3 µM)
[3]; Staphylococcus aureus, HIP06854, VI-MRSA, America
  MIC: 16 µg/mL (≈ 44.3 µM)
[3]; Staphylococcus aureus, HIP07920, VI-MRSA, America
  MIC: 16 µg/mL (≈ 44.3 µM)
[3]; Staphylococcus aureus, HIP07930, VI-MRSA, America
  MIC: 32 µg/mL (≈ 88.6 µM)
[3]; Staphylococcus aureus, HIP08926, VI-MRSA, America
  MIC: 16 µg/mL (≈ 44.3 µM)
[3]; Staphylococcus aureus, HIP09143, VI-MRSA, America
  MIC: 64 µg/mL (≈ 177 µM)
[3]; Staphylococcus aureus, HIP09313, VI-MRSA, America
  MIC: 16 µg/mL (≈ 44.3 µM)
[3]; Staphylococcus aureus, HIP09433, VI-MRSA, America
  MIC: 64 µg/mL (≈ 177 µM)
[3]; Staphylococcus aureus, HIP09662, VI-MRSA, America
  MIC: 32 µg/mL (≈ 88.6 µM)
[3]; Staphylococcus aureus, HIP09735, VI-MRSA, America
  MIC: 32 µg/mL (≈ 88.6 µM)
[3]; Staphylococcus aureus, HIP09737, VI-MSSA, America
  MIC: 64 µg/mL (≈ 177 µM)
[3]; Staphylococcus aureus, HIP09740, VI-MRSA, America
  MIC: 64 µg/mL (≈ 177 µM)
[3]; Staphylococcus aureus, HIP10267, VI-MRSA, America
  MIC: 64 µg/mL (≈ 177 µM)
[3]; Staphylococcus aureus, HIP10540, VI-MRSA, America
  MIC: 32 µg/mL (≈ 88.6 µM)
[3]; Staphylococcus aureus, HIP12864, VI-MRSA, America
  MIC: 64 µg/mL (≈ 177 µM)
[3]; Staphylococcus aureus, HIP13036, VI-MRSA, America
  MIC: 8 µg/mL (≈ 22.1 µM)
[3]; Staphylococcus aureus, HIP13057, VI-MRSA, America
  MIC: 32 µg/mL (≈ 88.6 µM)
[3]; Staphylococcus aureus, IL (HIP7737), VI-MRSA, America
  MIC: 128 µg/mL (≈ 354 µM)
[3]; Staphylococcus aureus, JCSC7193, VI-MRSA, Thailand
  MIC: 16 µg/mL (≈ 44.3 µM)
[3]; Staphylococcus aureus, JCSC7195, VI-MRSA, Thailand
  MIC: 64 µg/mL (≈ 177 µM)
[3]; Staphylococcus aureus, JCSC7203, VI-MRSA, Thailand
  MIC: 16 µg/mL (≈ 44.3 µM)
[3]; Staphylococcus aureus, LIM2, VI-MRSA, France
  MIC: 64 µg/mL (≈ 177 µM)
[3]; Staphylococcus aureus, LY-1999-01, VI-MSSA, Oman
  MIC: 8 µg/mL (≈ 22.1 µM)
[3]; Staphylococcus aureus, LY-1999-03, VI-MRSA, Oman
  MIC: 8 µg/mL (≈ 22.1 µM)
[3]; Staphylococcus aureus, MI (HIP5827), VI-MRSA, America
  MIC: 128 µg/mL (≈ 354 µM)
[3]; Staphylococcus aureus, MRSA / MSSA / NRS 76 / VISA, NRS76, VI-MSSA, America
  MIC: 64 µg/mL (≈ 177 µM)
[3]; Staphylococcus aureus, MRSA / MSSA / NRS 79 / VISA, NRS79, VI-MRSA, America
  MIC: 128 µg/mL (≈ 354 µM)
[3]; Staphylococcus aureus, MRSA / MSSA / NRS 118 / VISA, NRS118, VI-MRSA, America
  MIC: 64 µg/mL (≈ 177 µM)
[3]; Staphylococcus aureus, MRSA / MSSA / NRS 126 / VISA, NRS126, VI-MRSA, America
  MIC: 16 µg/mL (≈ 44.3 µM)
[3]; Staphylococcus aureus, Mu3, VI-MRSA, Japan
  MIC: 16 µg/mL (≈ 44.3 µM)
[3]; Staphylococcus aureus, Mu50, VI-MRSA, Japan
  MIC: 16 µg/mL (≈ 44.3 µM)
[3]; Staphylococcus aureus, NJ (HIP5836), VI-MRSA, America
  MIC: 64 µg/mL (≈ 177 µM)
[3]; Staphylococcus aureus, P1V44, VI-MSSA, Belgium
  MIC: 4 µg/mL (≈ 11.1 µM)
[3]; Staphylococcus aureus, PC, VI-MRSA, America
  MIC: 16 µg/mL (≈ 44.3 µM)
[3]; Staphylococcus aureus, SA MER-S6, VI-MSSA, France
  MIC: 1 µg/mL (≈ 2.77 µM)
[3]; Staphylococcus aureus, SA MER-S12, VI-MSSA, France
  MIC: 0.5 µg/mL (≈ 1.38 µM)
[3]; Staphylococcus aureus, SA MER-S20, VI-MSSA, France
  MIC: 0.25 µg/mL (≈ 0.692 µM)
